Drawing on patent publication US20250018046A1, “COMPOUNDS FOR TARGETING DEGRADATION OF IRAK4 PROTEINS” (BIOGEN MA INC, priority 2021, published 2025), this text covers DC50 for 16 compounds.

The target of the assay is T1, IRAK4 (Homo sapiens, UniProt Q9NWZ3).
T1 construct: knocking-in a HiBiT fusion tag into the C-terminal of the IRAK4 gene in 293T cells; host or cells: 293T cells, knock-in of HiBiT at the endogenous IRAK4 locus
T1 sequence (Q9NWZ3 1-460): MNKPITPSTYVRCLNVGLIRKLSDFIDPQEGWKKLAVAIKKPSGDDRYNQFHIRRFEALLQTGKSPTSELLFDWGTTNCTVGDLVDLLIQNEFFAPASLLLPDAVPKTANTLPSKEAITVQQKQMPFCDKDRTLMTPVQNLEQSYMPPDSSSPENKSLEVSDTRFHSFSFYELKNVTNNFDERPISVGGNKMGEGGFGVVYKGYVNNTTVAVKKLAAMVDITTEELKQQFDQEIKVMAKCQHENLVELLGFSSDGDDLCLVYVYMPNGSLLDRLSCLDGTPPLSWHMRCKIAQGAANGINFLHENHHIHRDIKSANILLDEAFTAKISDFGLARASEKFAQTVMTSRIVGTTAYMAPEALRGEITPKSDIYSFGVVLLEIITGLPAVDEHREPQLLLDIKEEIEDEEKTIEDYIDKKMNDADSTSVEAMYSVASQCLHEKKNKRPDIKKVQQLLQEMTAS
The experiment in a line: IRAK4 degradation assay using the HiBiT Method. Type of assay: cell-based. As to conditions: 293T cells expressing HiBiT-tagged IRAK4; 6-hour incubation; Nano-Glo HiBiT Lytic Assay luminescence. In outline: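 HEK293T cells with HiBiT knocked into the IRAK4 C-terminus, 10,000 cells per well, treated with an 11-point half-log series […] in duplicate for 6 hours at 37° C., 5% CO2. Remaining IRAK4 quantified by Nano-Glo HiBiT lytic luminescence against DMSO controls.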
In general terms: HiBiT is a short tag that completes a luciferase, so light tracks the accessible tagged protein.

SMILES strings stand for the structures. Some results are limits rather than exact numbers.

In the case of `CC(C)Oc1cc2nn(C3CCN(C(=O)CN4CCC(c5ccc(NC6CCC(=O)NC6=O)cc5)CC4)CC3)cc2cc1NC(=O)c1cccc(C(F)(F)F)n1` (stereo not shown) [Example 51, N-[2-[1-[2-[4-[4-[(2,6-dioxo-3-piperidyl)amino]phenyl]-1-piperidyl]acetyl]-4-piperidyl]-6-isopropoxy-indazol-5-yl]-6-(trifluoromethyl)pyridine-2-carboxamide], the DC50 – broadly, the concentration giving 50% degradation – lay within 10 to 100 nM.
In the case of `CC(C)Oc1cc2nn(C3CCN(C(=O)CN4CCC(c5ccc(NC6CCC(=O)NC6=O)cc5F)CC4)CC3)cc2cc1NC(=O)c1cccc(C(F)(F)F)n1` (stereo not shown) [Example 52, N-(2-(1-(2-(4-(4-((2,6-dioxopiperidin-3-yl)amino)-2-fluorophenyl)piperidin-1-yl)acetyl)piperidin-4-yl)-6-isopropoxy-2H-indazol-5-yl)-6-(trifluoromethyl)picolinamide], the DC50 fell in the range of 10 to 100 nM.
With `CC(C)Oc1cc2nc(C3CCN(CC(=O)N4CCC(c5ccc(NC6CCC(=O)NC6=O)cc5)CC4)CC3)cn2cc1NC(=O)c1ccncn1` (stereo not shown) [Example 53, N-[2-[1-[2-[4-[4-[(2,6-dioxo-3-piperidyl)amino]phenyl]-1-piperidyl]-2-oxo-ethyl]-4-piperidyl]-7-isopropoxy-imidazo[1,2-a]pyridin-6-yl]pyrimidine-4-carboxamide] the figure was 100 to 500 nM.
With `CC(C)Oc1cc2nc(C3CCN(CC(=O)N4CCC(c5ccc(NC6CCC(=O)NC6=O)cc5)CC4)CC3)cn2cc1NC(=O)c1cccc(C(F)(F)F)c1` (stereo not shown) [Example 54, N-[2-[1-[2-[4-[4-[(2,6-dioxo-3-piperidyl)amino]phenyl]-1-piperidyl]-2-oxo-ethyl]-4-piperidyl]-7-isopropoxy-imidazo[1,2-a]pyridin-6-yl]-3-(trifluoromethyl)benzamide] the figure was 100 to 500 nM; with `CC(C)Oc1cc2nc(C3CCN(CC(=O)N4CCC(c5ccc(NC6CCC(=O)NC6=O)cc5)CC4)CC3)cn2cc1NC(=O)c1ccccn1` (stereo not shown) [Example 55, N-[2-[1-[2-[4-[4-[(2,6-dioxo-3-piperidyl)amino]phenyl]-1-piperidyl]-2-oxo-ethyl]-4-piperidyl]-7-isopropoxy-imidazo[1,2-a]pyridin-6-yl]pyridine-2-carboxamide], 10 to 100 nM; with `CC(C)Oc1cc2nc(C3CCN(CC(=O)N4CCC(c5ccc(NC6CCC(=O)NC6=O)cc5)CC4)CC3)cn2cc1NC(=O)c1ccccc1` (stereo not shown) [Example 56, N-[2-[1-[2-[4-[4-[(2,6-dioxo-3-piperidyl)amino]phenyl]-1-piperidyl]-2-oxo-ethyl]-4-piperidyl]-7-isopropoxy-imidazo[1,2-a]pyridin-6-yl]benzamide], 100 to 500 nM.
With `CC(C)Oc1cc2nc(C3CCN(CC(=O)N4CCC(c5ccc(NC6CCC(=O)NC6=O)cc5)CC4)CC3)cn2cc1NC(=O)c1cnn2cccnc12` (stereo not shown) [Example 57, N-(2-(1-(2-(4-(4-((2,6-dioxopiperidin-3-yl)amino)phenyl)piperidin-1-yl)-2-oxoethyl)piperidin-4-yl)-7-isopropoxyimidazo[1,2-a]pyridin-6-yl)pyrazolo[1,5-a]pyrimidine-3-carboxamide], the DC50 is less than 10 nM.
With `Cc1cc(-c2nc(C(=O)Nc3cn4cc(C5CCN(CC(=O)N6CCC(c7ccc(NC8CCC(=O)NC8=O)cc7)CC6)CC5)nc4cc3OC(C)C)co2)ccn1` (stereo not shown) [Example 58, N-(2-(1-(2-(4-(4-((2,6-dioxopiperidin-3-yl)amino)phenyl)piperidin-1-yl)-2-oxoethyl)piperidin-4-yl)-7-isopropoxyimidazo[1,2-a]pyridin-6-yl)-2-(2-methylpyridin-4-yl)oxazole-4-carboxamide] the figure was 10 to 100 nM; with `CC(C)Oc1cc2nc(C3CCN(CC(=O)N4CCC(c5ccc(NC6CCC(=O)NC6=O)cc5)CC4)CC3)cn2cc1NC(=O)c1ccc(F)cc1F` (stereo not shown) [Example 59, N-(2-(1-(2-(4-(4-((2,6-dioxopiperidin-3-yl)amino)phenyl)piperidin-1-yl)-2-oxoethyl)piperidin-4-yl)-7-isopropoxyimidazo[1,2-a]pyridin-6-yl)-2,4-difluorobenzamide], 10 to 100 nM; with `CC(C)Oc1cc2nc(C3CCN(CC(=O)N4CCC(c5ccc(NC6CCC(=O)NC6=O)cc5)CC4)CC3)cn2cc1NC(=O)c1ccn(C)n1` (stereo not shown) [Example 60, N-[2-[1-[2-[4-[4-[(2,6-dioxo-3-piperidyl)amino]phenyl]-1-piperidyl]-2-oxo-ethyl]-4-piperidyl]-7-isopropoxy-imidazo[1,2-a]pyridin-6-yl]-1-methyl-pyrazole-3-carboxamide], 10 to 100 nM.
For `CC(C)Oc1cc2nc(C3CCN(CC(=O)N4CCC(c5ccc(NC6CCC(=O)NC6=O)cc5)CC4)CC3)cn2cc1NC(=O)c1cccc(C(F)F)c1` (stereo not shown) [Example 61, 3-(difluoromethyl)-N-(2-(1-(2-(4-(4-((2,6-dioxopiperidin-3-yl)amino)phenyl)piperidin-1-yl)-2-oxoethyl)piperidin-4-yl)-7-isopropoxyimidazo[1,2-a]pyridin-6-yl)benzamide] the value was 10 to 100 nM.
`CC(C)Oc1cc2nc(C3CCN(CCN4CCC(c5ccc(CN6CCC(=O)NC6=O)cc5)CC4)CC3)cn2cc1NC(=O)c1cccc(C(F)(F)F)n1` [Example 62, N-[2-[1-[2-[4-[4-[(2,4-dioxohexahydropyrimidin-1-yl)methyl]phenyl]-1-piperidyl]ethyl]-4-piperidyl]-7-isopropoxy-imidazo[1,2-a]pyridin-6-yl]-6-(trifluoromethyl)pyridine-2-carboxamide]: the DC50 was 100 to 500 nM.
With `CC(C)Oc1cc2nc(C3CCN(CCN4CCC(c5ccc(C6CCC(=O)NC6=O)cc5F)CC4)CC3)cn2cc1NC(=O)c1cccc(C(F)(F)F)n1` (stereo not shown) [Example 64, N-[2-[1-[2-[4-[4-(2,6-dioxo-3-piperidyl)-2-fluoro-phenyl]-1-piperidyl]ethyl]-4-piperidyl]-7-isopropoxy-imidazo[1,2-a]pyridin-6-yl]-6-(trifluoromethyl)pyridine-2-carboxamide] the figure was 100 to 500 nM.
For `CC(C)Oc1cc2nc(C3CCN(CCN4CCN(c5ccc(C6CCC(=O)NC6=O)cc5)CC4)CC3)cn2cc1NC(=O)c1cccc(C(F)(F)F)n1` (stereo not shown) [Example 65, N-[2-[1-[2-[4-[4-(2,6-dioxo-3-piperidyl)phenyl]piperazin-1-yl]ethyl]-4-piperidyl]-7-isopropoxy-imidazo[1,2-a]pyridin-6-yl]-6-(trifluoromethyl)pyridine-2-carboxamide] the value was 10 to 100 nM; for `CC(C)Oc1cc2nc(C3CCN(CCN4CCC(c5ccc(NC6CCC(=O)NC6=O)cc5)CC4)CC3)cn2cc1NC(=O)c1cccc(C(F)(F)F)n1` (stereo not shown) [Example 66, N-[2-[1-[2-[4-[4-[(2,6-dioxo-3-piperidyl)amino]phenyl]-1-piperidyl]ethyl]-4-piperidyl]-7-isopropoxy-imidazo[1,2-a]pyridin-6-yl]-6-(trifluoromethyl)pyridine-2-carboxamide], 100 to 500 nM; for `CC(C)Oc1cc2nc(C3CCN(CCN4CCC(c5ccc(NC6CCC(=O)NC6=O)cc5F)CC4)CC3)cn2cc1NC(=O)c1cccc(C(F)(F)F)n1` (stereo not shown) [Example 67, N-[2-[1-[2-[4-[4-[(2,6-dioxo-3-piperidyl)amino]-2-fluoro-phenyl]-1-piperidyl]ethyl]-4-piperidyl]-7-isopropoxy-imidazo[1,2-a]pyridin-6-yl]-6-(trifluoromethyl)pyridine-2-carboxamide], 100 to 500 nM.
